{"source": "paper PMC11984586", "about": "“A novel spider toxin as a selective antagonist of the Kv1 subfamily of voltage-gated potassium channels through gating modulation” (The Journal of Biological Chemistry, 2025)", "format_in_all_cases": "cell-based", "key": {"Kv7.1": {"tested_on": "Kv7.1", "experiment": "Selectivity patch clamp, non-Kv1 channels", "details": "10 μM MrVIII; n = 3–5", "experimental": "(§1) CHO-K1 cells were selected for expressing Kv channels due to their lack of endogenous Kv channels, while HEK293 or ND7/23 cells were used for Nav and Cav channel expression. CHO-K1 cells were cultured in a Dulbecco's modified Eagle's medium/Ham's F-12 nutrient mixture (DMEM-F12) medium, and HEK293T and ND7/23 cells in DMEM medium, all supplemented with 10% fetal bovine serum and 1% penicillin-streptomycin (all from Gibco, Thermo Fisher Scientific, Inc) under standard conditions (37 °C, 5% CO2, and saturated humidity). These cell lines were purchased from Stem Cell Bank, Chinese Academy of Sciences. Channel plasmids were cotransfected with pEGFP-N1 (encoding GFP) into the respective cells using lipofectamine 2000, following the manufacturer's instructions (Invitrogen, Thermo Fisher Scientific, Inc.). Nav1.9-GFP plasmid was transfected into ND7/23 using the X-tremeGENE HP DNA Transfection Reagent (Roche). After 4 to 6 h transfection, cells were seeded onto poly-lysine–coated coverslips, and 24 to 36 h later, transfected cells were ready for patch-clamp analysis.\n(§2) Patch clamp experiments were conducted using an electrophysiology platform comprising a MultiClamp 700B amplifier and an Axon Digidata 1550 AD/DA convertor (Axon Instruments). Data acquisition was performed with pClamp 10.5 software (Axon Instruments). All experiments were performed at room temperature.\n(§3) For Kv current recordings, the bath solution contained (in mM) the following: 140 NaCl, 5 KCl, 1 MgCl2, 2 CaCl2, 10 glucose, and 10 Hepes (pH 7.3, adjusted with NaOH), and the pipette solution contained (in mM) the following: 140 KCl, 2.5 MgCl2, 11 EGTA, and 10 Hepes (pH 7.3, adjusted with KOH). Series resistance was maintained below 10 MΩ and compensated to 80%. Concentration–response curves were fitted by the Hill equation to determine the toxin's potency. Whole cell conductance (G) at each depolarizing voltage (V) was determined using the equation: G = I/(V−Vrev), where I is the current amplitude, and Vrev is the reversal potential. The reversal potential for K^+ current was estimated to be −85.6 mV using the Nernst equation. G-V curves were obtained by plotting the normalized conductance as a function of V and fitted by the Boltzmann equation: y = 1/(1+ exp((Va-V)/k)), which Va is the midpoint voltage, V is the test potential, and k is the slope factor. The steady-state fast inactivation of Kv1.3 was measured using a two-pulses protocol. The cell was held at −120 mV, and a train of conditional voltages (−120–40 mV in 10 mV increments, 60 s) were applied to induce channel inactivation, followed by a +60 mV test pulse (300 ms) to assess the proportion of noninactivated channels. The sweep interval was set to 30 s. Currents at the test pulse (I) were normalized to the maximum value (Imax) and plotted as a function of the conditional voltage (V). The curve was fitted by the Boltzmann equation: I/Imax = A+(1 − A)/(1+exp ((V−Vh)/K)), where Vh is the half-maximum inactivation voltage, A represents the minimum channel availability, and k is the slope factor."}, "Kv2.1": {"tested_on": "Kv2.1", "experiment": "Selectivity patch clamp, non-Kv1 channels", "details": "10 μM MrVIII; n = 3–5", "experimental": "as §1, §2, §3"}, "Kv7.3": {"tested_on": "Kv7.3", "experiment": "Selectivity patch clamp, non-Kv1 channels", "details": "10 μM MrVIII; n = 3–5", "experimental": "as §1, §2, §3"}, "Kv3.1-3.3": {"tested_on": "Kv3.1-3.3", "experiment": "Selectivity patch clamp, non-Kv1 channels", "details": "10 μM MrVIII; n = 3–5", "experimental": "as §1, §2, §3"}, "Kv4.1-4.3": {"tested_on": "Kv4.1-4.3", "experiment": "Selectivity patch clamp, non-Kv1 channels", "details": "10 μM MrVIII; n = 3–5", "experimental": "as §1, §2, §3"}, "[1]": {"target": "T1, Kv1.1/QM (Kv1.1/E283Q_T286M) (Homo sapiens, UniProt Q09470, E283Q/T286M)", "T1 construct": "expressed in transfected cells; host or cells: CHO-K1", "T1 sequence (Q09470 whole entry E283Q/T286M)": "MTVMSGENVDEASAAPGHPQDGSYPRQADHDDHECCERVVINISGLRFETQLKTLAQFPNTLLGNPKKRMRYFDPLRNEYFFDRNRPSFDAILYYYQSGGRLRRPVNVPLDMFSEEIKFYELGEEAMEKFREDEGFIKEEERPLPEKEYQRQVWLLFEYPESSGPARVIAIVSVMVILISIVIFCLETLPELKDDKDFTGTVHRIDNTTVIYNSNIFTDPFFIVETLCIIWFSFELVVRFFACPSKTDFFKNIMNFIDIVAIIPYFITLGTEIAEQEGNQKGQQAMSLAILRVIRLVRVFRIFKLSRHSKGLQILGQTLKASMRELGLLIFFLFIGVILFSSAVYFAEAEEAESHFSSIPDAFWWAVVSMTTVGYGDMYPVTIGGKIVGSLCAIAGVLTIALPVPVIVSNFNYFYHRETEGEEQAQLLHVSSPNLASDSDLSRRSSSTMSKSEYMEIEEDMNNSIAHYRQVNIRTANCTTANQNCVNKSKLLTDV", "experiment": "Whole-cell patch clamp, Kv1.1 double mutant", "details": "+30 mV, mean ± SD, n = 3–5, read-out: IC50, Kv1.1/QM current (full inhibition)", "text": "In contrast, differences at positions 347, 355, and 358 between Kv1.3 and Kv1.1 prompted further analysis. To explore whether these discrepancies influence peptide-mediated inhibition, we substituted these residues in Kv1.3 with their homologous counterparts in Kv1.1 and assessed the MrVIII's inhibitory efficacy on these single-point mutants. […] To further investigate this, we introduced double adjacent mutations around Q355 and M358 in Kv1.3 to explore potential synergistic effects on MrVIII's inhibitory activity. […]\n(§4) CHO-K1 cells were selected for expressing Kv channels due to their lack of endogenous Kv channels, while HEK293 or ND7/23 cells were used for Nav and Cav channel expression. […] After 4 to 6 h transfection, cells were seeded onto poly-lysine–coated coverslips, and 24 to 36 h later, transfected cells were ready for patch-clamp analysis. […]\nFor Kv current recordings, the bath solution contained (in mM) the following: 140 NaCl, 5 KCl, 1 MgCl2, 2 CaCl2, 10 glucose, and 10 Hepes (pH 7.3, adjusted with NaOH), and the pipette solution contained (in mM) the following: 140 KCl, 2.5 MgCl2, 11 EGTA, and 10 Hepes (pH 7.3, adjusted with KOH). […] Whole cell conductance (G) at each depolarizing voltage (V) was determined using the equation: G = I/(V−Vrev), where I is the current amplitude, and Vrev is the reversal potential. […]"}, "rKv1.4": {"target": "T2, rKv1.4 (Rattus norvegicus, UniProt P15385)", "T2 construct": "expressed in transfected cells; host or cells: CHO-K1", "T2 sequence (P15385 whole entry)": "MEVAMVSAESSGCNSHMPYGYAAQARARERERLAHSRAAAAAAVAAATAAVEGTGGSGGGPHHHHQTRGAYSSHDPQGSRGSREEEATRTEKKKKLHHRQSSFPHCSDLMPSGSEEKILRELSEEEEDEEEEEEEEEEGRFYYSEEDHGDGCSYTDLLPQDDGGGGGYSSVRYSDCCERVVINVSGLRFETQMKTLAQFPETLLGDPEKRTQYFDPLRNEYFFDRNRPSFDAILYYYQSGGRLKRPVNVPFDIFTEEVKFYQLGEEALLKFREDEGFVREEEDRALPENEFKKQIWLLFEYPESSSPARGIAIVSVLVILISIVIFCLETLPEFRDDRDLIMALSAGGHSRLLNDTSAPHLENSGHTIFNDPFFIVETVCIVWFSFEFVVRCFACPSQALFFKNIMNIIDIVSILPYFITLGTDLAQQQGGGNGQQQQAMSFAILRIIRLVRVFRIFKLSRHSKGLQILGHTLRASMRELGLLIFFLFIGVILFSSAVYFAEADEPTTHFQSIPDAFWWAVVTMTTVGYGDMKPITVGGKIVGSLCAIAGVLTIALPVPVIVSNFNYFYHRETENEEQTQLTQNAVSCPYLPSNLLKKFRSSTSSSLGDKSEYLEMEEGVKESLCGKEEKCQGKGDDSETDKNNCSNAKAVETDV", "experiment": "Whole-cell patch clamp, Kv1.4 ionic current in CHO-K1 cells", "experimental": "The cDNA of hKv1.1, hKv1.2, hKv1.3, rKv1.4, hKv1.5, mKv1.6, and hKv1.7 were subcloned into mammalian expression vectors pcDNA3.1 or pCMV-blank vectors, as well as other plasmids described previously ([35]). Channel mutants were generated by site-directed mutations. Briefly, the parental channel plasmid was amplified using a pair of oppositely directed primers harboring the designed mutation site, with KOD Fx (TOYOBO Co, Ltd). The resulting PCR mix was treated with FastDigest DpnI (Thermo Fisher Scientific) to remove the methylated template. Ten microliters of the digested product was then used to transform 100 μl E. coli DH5α competent cells. […]\nas §4\nFor Kv current recordings, the bath solution contained (in mM) the following: 140 NaCl, 5 KCl, 1 MgCl2, 2 CaCl2, 10 glucose, and 10 Hepes (pH 7.3, adjusted with NaOH), and the pipette solution contained (in mM) the following: 140 KCl, 2.5 MgCl2, 11 EGTA, and 10 Hepes (pH 7.3, adjusted with KOH). […] The steady-state fast inactivation of Kv1.3 was measured using a two-pulses protocol. […]"}}, "note": "Bridge positions count the residues as written; N and C are the ends. Peptide text beside a SMILES is read from it.", "data": [{"smiles": "CC[C@H](C)[C@@H]1NC(=O)[C@H](Cc2ccc(O)cc2)NC(=O)[C@H](CCC(N)=O)NC(=O)[C@@H]2CCCN2C(=O)[C@@H]2CSSC[C@H](NC(=O)[C@H](C)NC(=O)[C@H](CO)NC(=O)[C@H](CCC(=O)O)NC(=O)[C@H](CCC(=O)O)NC(=O)[C@@H](N)[C@@H](C)O)C(=O)NCC(=O)NCC(=O)N[C@@H](Cc3ccccc3)C(=O)N[C@@H](CC(N)=O)C(=O)N[C@@H](C)C(=O)N[C@@H](CCCNC(=N)N)C(=O)N[C@H]3CSSC[C@H](NC1=O)C(=O)N[C@@H](CCCCN)C(=O)NCC(=O)N[C@@H](Cc1c[nH]c4ccccc14)C(=O)N[C@@H](CCCNC(=N)N)C(=O)N[C@@H]([C@@H](C)O)C(=O)N[C@@H](CCCCN)C(=O)N[C@@H](CCCNC(=N)N)C(=O)N[C@H](C(=O)N[C@@H](CC(C)C)C(=O)N[C@@H](CC(N)=O)C(=O)N1CCC[C@H]1C(=O)O)CSSC[C@H](NC(=O)[C@H](CCCCN)NC(=O)[C@H](Cc1c[nH]cn1)NC(=O)[C@H](CC(C)C)NC(=O)[C@@H]1CCCN1C3=O)C(=O)N2", "note": "[MrVIII] (H-TEESACGGFNARCPLHKCCPQYICKGWRTKRCLNP-OH; disulfide 6-19, 13-24, 18-32; N-terminus and C-terminus assumed)", "values": [{"measurement": "inhibition of Kv7.1 current", "setting": "Kv7.1", "result": "did not remarkably inhibit"}, {"measurement": "inhibition of Kv2.1 current", "setting": "Kv2.1", "result": "did not remarkably inhibit"}, {"measurement": "inhibition of Kv7.3 current", "setting": "Kv7.3", "result": "did not remarkably inhibit"}, {"measurement": "inhibition of Kv3.1-3.3 currents", "setting": "Kv3.1-3.3", "result": "did not remarkably inhibit"}, {"measurement": "inhibition of Kv4.1-4.3 currents", "setting": "Kv4.1-4.3", "result": "did not remarkably inhibit"}, {"measurement": "IC50", "setting": "[1]", "result": "7.7 ± 5.3", "unit": "nM"}, {"measurement": "IC50", "setting": "rKv1.4; current measured at 50 ms of a 500 ms depolarization to +30 mV, mean ± SD, n = 4–7, SD", "result": "62.7 ± 56.9", "unit": "nM"}, {"measurement": "enhancement of the 495 ms current of Kv1.4", "setting": "rKv1.4; in the presence of MrVIII (10 μM saturating), +30 mV, 495 ms", "result": 3.9, "unit": "fold"}]}]}
